Our source for the IC50 values is ChEMBL document CHEMBL1128412, “Mechanism-based development of new antimalarials: synthesis of derivatives of artemisinin attached to iron chelators” (J Med Chem, 1995).

Experiment [1] concerns Plasmodium falciparum. Nature of the experiment: In vitro antimalarial activity against Plasmodium falciparum. In kind it is functional, organism-based.
The test system of experiment [2] is Plasmodium falciparum. Put plainly: In vitro antimalarial activity against Plasmodium falciparum in 20 mM FeCl3. In kind it is functional, organism-based.

One may read the IC50 as the concentration at which inhibition is half-maximal. As to `C[C@H]1[C@@H](OCCCOc2c(O)cccc2O)O[C@@H]2O[C@@]3(C)CC[C@H]4[C@H](C)CC[C@@H]1[C@@]24OO3`, the IC50 in the experiment with Plasmodium falciparum [1] worked out at 0.00767 µM; with Plasmodium falciparum [2] it was 0.00921 µM.

Compound `C[C@H]1[C@@H](OCCCBr)O[C@@H]2O[C@@]3(C)CC[C@H]4[C@H](C)CC[C@@H]1[C@@]24OO3` came in with an IC50 in the experiment with Plasmodium falciparum [1] of 0.00368 µM. This lies in the single-digit nanomolar range.

In the case of `C[C@H]1[C@@H](OCCCONC(=O)c2ccccc2)O[C@@H]2O[C@@]3(C)CC[C@H]4[C@H](C)CC[C@@H]1[C@@]24OO3`, the IC50 is 0.0236 µM with Plasmodium falciparum [1] and 0.0329 µM in the experiment with Plasmodium falciparum [2].

With `C[C@H]1[C@@H](OCCCOc2coc(CO)cc2=O)O[C@@H]2O[C@@]3(C)CC[C@H]4[C@H](C)CC[C@@H]1[C@@]24OO3`, the IC50 in the experiment on Plasmodium falciparum [1] came out at 0.00955 µM; in the experiment with Plasmodium falciparum [2] it was 0.0168 µM.

In the experiment with Plasmodium falciparum [1], `CCN(CC)C(=S)SCCCO[C@H]1O[C@@H]2O[C@@]3(C)CC[C@H]4[C@H](C)CC[C@@H]([C@H]1C)[C@@]24OO3` yielded an IC50 of 0.00765 µM.

For `COC(=O)/C=C/c1ccc(OCCCO[C@H]2O[C@@H]3O[C@@]4(C)CC[C@H]5[C@H](C)CC[C@@H]([C@H]2C)[C@@]35OO4)c(O)c1`, the IC50 in the experiment on Plasmodium falciparum [1] was 0.00478 µM; with Plasmodium falciparum [2] it was 0.00338 µM.

In the case of `C[C@H]1[C@@H](OCCC2Oc3cccc(O)c3O2)O[C@@H]2O[C@@]3(C)CC[C@H]4[C@H](C)CC[C@@H]1[C@@]24OO3` (some centres undefined), the IC50 with Plasmodium falciparum [1] is 0.00664 µM.

In turn, `C[C@H]1[C@@H](OCCC2ON2C(=O)c2ccccc2O)O[C@@H]2O[C@@]3(C)CC[C@H]4[C@H](C)CC[C@@H]1[C@@]24OO3` (some centres undefined) came in with an IC50 with Plasmodium falciparum [1] of 0.00425 µM.

As to `C[C@H]1[C@@H](OCCCONC(=O)c2ccccc2O)O[C@@H]2O[C@@]3(C)CC[C@H]4[C@H](C)CC[C@@H]1[C@@]24OO3`, the IC50 with Plasmodium falciparum [1] turned out to be 0.0525 µM; in the experiment with Plasmodium falciparum [2] it was 0.0487 µM.

`C[C@H]1[C@@H](OCCCOc2cccc(O)c2O)O[C@@H]2O[C@@]3(C)CC[C@H]4[C@H](C)CC[C@@H]1[C@@]24OO3` displayed an IC50 in the experiment with Plasmodium falciparum [1] of 0.0127 µM. This counts as double-digit nanomolar.

As for `C[C@@H]1CC[C@H]2[C@@H](C)C(=O)O[C@@H]3O[C@@]4(C)CC[C@@H]1[C@]32OO4` [ARTEMISININ], the IC50 with Plasmodium falciparum [1] is 0.00582 µM; with Plasmodium falciparum [2] it was 0.00541 µM.

`C[C@H]1[C@@H](O)O[C@@H]2O[C@@]3(C)CC[C@H]4[C@H](C)CC[C@@H]1[C@@]24OO3` [ARTENIMOL] had an IC50 in the experiment with Plasmodium falciparum [1] of 0.0011 µM.

In turn, `O=C(NO)c1ccccc1` [BENZOHYDROXAMATE] came in with an IC50 with Plasmodium falciparum [1] of 17.6 µM.

With `O=C(O)/C=C/c1ccc(O)c(O)c1` [CAFFEIC ACID], half-maximal inhibition in the experiment with Plasmodium falciparum [1] (IC50) was put at 122 µM.

For the compound `O=c1cc(CO)occ1O` [KOJIC ACID], in the experiment with Plasmodium falciparum [1], half-maximal inhibition (IC50) was put at 1580 µM.

In the experiment with Plasmodium falciparum [1], `COC(=O)/C=C/c1ccc(O)c(O)c1` [METHYLCAFFEATE] registered an IC50 of 46.5 µM. This IC50 is about 34-fold lower than that of the compound before.

`Oc1cccc(O)c1O` [PYROGALLOL]: in the experiment on Plasmodium falciparum [1], it took 5.66 µM to reach half-maximal inhibition (IC50).

In turn, `O=C(NO)c1ccccc1O` [SALICYLHYDROXAMIC ACID] came in with an IC50 in the experiment on Plasmodium falciparum [1] of 107 µM.
